In data set [1] the test system is A2780. Description: Inhibition of Pgp-mediated drug efflux in adriamycin-resistant human A2780 cells assessed as increase in intracellular adriamycin level at 5 uM after 40 mins by flow cytometry analysis. It is filed as cell-based. (A flow cytometer gives signals particle by particle.)
Data set [2] has as its system A2780. The data set is described as follows: Cellular uptake in adriamycin-resistant human A2780 cells at 20 uM after 5 mins by confocal microscopic analysis. In kind it is ADME, cell-based. Particulars: a2780, 5 min.
Data set [3] in a line: Cellular uptake in adriamycin-resistant human A2780 cells plasma membrane at 5 uM after 5 mins by confocal microscopic analysis. It is filed as ADME, cell-based. The settings on record: a2780, 5 min.
The subject of data set [4] is A2780. Description: Inhibition of Pgp-mediated drug efflux in adriamycin-resistant human A2780 cells assessed as increase in adriamycin-induced cytotoxicity at 5 uM after 1 hr by CCK-8 assay. In kind it is cell-based.
The test system of data set [5] is A2780. Description: Inhibition of Pgp-mediated drug efflux in adriamycin-resistant human A2780 cells assessed as increase in adriamycin uptake at 5 uM after 1 hr by flow cytometry analysis. In kind it is cell-based.
The test system of data set [6] is A2780. Description: Inhibition of Pgp-mediated drug efflux in adriamycin-resistant human A2780 cells assessed as increase in adriamycin-induced cytotoxicity at 5 uM after 8 hrs by CCK-8 assay. In kind it is cell-based.
The subject of data set [7] is A2780. The data set is described as follows: Inhibition of Pgp-mediated drug efflux in adriamycin-resistant human A2780 cells assessed as increase in adriamycin uptake at 5 uM after 8 hrs by flow cytometry analysis. In kind it is cell-based.
Data set [8] is described as follows: Cellular uptake in adriamycin-resistant human A2780 cell plasma membrane at 5 uM after 40 mins by confocal microscopic analysis. In kind it is ADME, cell-based. The settings on record: a2780, 40 min.
Data set [9] deals with A2780. Description: Inhibition of Pgp-mediated drug efflux in adriamycin-resistant human A2780 cells assessed as localization of adriamycin from plasma membrane to intracellular sites at 5 uM after 5 mins by confocal microscopic analysis. In kind it is cell-based.
For data set [10], the system named is A2780. The data set is described as follows: Inhibition of Pgp-mediated drug efflux in adriamycin-resistant human A2780 cells assessed as localization of MitoTracker from plasma membrane to intracellular sites at 5 uM after 5 mins by confocal microscopic analysis. It is filed as cell-based.
Data set [11] in a line: Cellular uptake in wild type human A2780 cell mitochondria at 5 uM after 40 mins by confocal microscopic analysis. In kind it is ADME. Particulars: a2780, 40 min.
In data set [12] the test system is A2780. The data set is described as follows: Inhibition of Pgp-mediated drug efflux in adriamycin-resistant human A2780 cells assessed as increase of MitoTracker accumulation at 5 uM after 5 mins by confocal microscopic analysis. It is filed as cell-based.
Data set [13] has as its target ATP-dependent translocase ABCB1 (Homo sapiens, UniProt P08183). The data set is described as follows: Inhibition of p-glycoprotein in adriamycin-resistant human A2780 cell at 5 uM after 40 mins by confocal microscopic analysis. The settings on record: a2780, 40 min.
In data set [14] the test system is A2780. Description: Inhibition of Pgp in adriamycin-resistant human A2780 cells assessed as co-immunoprecipitation with biotin-Fxr3kCbl at 5 uM after 1 hr by immunoblotting analysis. In kind it is cell-based.
For data set [15], the system named is A2780. Description: Inhibition of Pgp-mediated drug efflux in human A2780 cells overexpressing Pgp assessed as increase in intracellular adriamycin level at 5 uM after 40 mins by flow cytometry analysis. It is filed as cell-based.
A short description of data set [16]: Cellular uptake in adriamycin-resistant human A2780 cell mitochondria at 5 uM after 40 mins by confocal microscopic analysis. It is filed as ADME. The settings on record: a2780, 40 min.
The subject of data set [17] is A2780. The data set is described as follows: Inhibition of Pgp-mediated drug efflux in adriamycin-resistant human A2780 cells assessed as increase in intracellular actinomycin level at 5 uM after 40 mins by flow cytometry analysis. It is filed as cell-based.

The source made the active and inactive calls. The rule behind the calls is not given here.

Chain of ATP-dependent translocase ABCB1 (P08183 whole entry): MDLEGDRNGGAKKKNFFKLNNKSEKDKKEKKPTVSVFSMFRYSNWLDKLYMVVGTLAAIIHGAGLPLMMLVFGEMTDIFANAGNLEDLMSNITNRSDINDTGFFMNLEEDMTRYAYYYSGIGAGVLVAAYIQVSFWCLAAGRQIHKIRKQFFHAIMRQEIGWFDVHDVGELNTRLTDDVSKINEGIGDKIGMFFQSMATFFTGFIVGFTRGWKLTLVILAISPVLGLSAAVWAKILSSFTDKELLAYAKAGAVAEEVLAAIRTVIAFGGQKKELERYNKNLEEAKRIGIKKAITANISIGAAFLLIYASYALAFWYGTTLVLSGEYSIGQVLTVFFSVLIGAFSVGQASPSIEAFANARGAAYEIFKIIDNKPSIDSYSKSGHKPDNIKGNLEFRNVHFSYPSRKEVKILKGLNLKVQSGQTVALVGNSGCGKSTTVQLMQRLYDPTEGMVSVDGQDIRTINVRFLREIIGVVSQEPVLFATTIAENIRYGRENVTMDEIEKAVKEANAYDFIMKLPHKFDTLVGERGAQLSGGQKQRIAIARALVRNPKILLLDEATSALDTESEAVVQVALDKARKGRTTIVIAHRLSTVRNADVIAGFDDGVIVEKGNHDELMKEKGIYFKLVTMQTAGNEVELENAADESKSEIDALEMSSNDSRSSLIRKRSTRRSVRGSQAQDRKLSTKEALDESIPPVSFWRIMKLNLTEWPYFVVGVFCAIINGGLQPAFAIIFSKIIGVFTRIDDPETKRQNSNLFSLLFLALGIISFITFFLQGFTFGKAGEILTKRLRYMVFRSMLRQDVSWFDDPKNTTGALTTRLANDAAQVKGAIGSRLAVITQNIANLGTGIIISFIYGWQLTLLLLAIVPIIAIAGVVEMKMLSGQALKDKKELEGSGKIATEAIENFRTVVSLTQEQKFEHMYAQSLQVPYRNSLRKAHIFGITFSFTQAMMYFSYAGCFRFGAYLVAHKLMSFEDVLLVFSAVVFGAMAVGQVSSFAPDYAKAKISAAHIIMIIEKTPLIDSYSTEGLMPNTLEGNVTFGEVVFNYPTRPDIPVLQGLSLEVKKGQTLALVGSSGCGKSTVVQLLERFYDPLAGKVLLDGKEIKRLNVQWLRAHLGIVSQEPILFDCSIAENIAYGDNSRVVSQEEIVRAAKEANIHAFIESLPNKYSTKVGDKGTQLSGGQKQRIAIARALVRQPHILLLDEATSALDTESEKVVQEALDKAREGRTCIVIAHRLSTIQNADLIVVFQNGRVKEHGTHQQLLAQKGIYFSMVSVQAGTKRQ

On to `CN1/C(=C\c2cc[n+](CCCCCC(=O)N[C@@H](CCCNC(=N)N)C(=O)N[C@@H](CCCNC(=N)N)C(=O)N[C@@H](CCCNC(=N)N)C(=O)N[C@@H](CCCNC(=N)N)C(=O)N[C@@H](CCCNC(=N)N)C(=O)N[C@@H](CCCNC(=N)N)C(=O)N[C@H](CCCCNC(=O)CCCc3ccc(N(CCCl)CCCl)cc3)C(N)=O)c3ccccc23)Sc2ccccc21`, for which the inhibition (in general, how much of the control response was suppressed) with A2780 [1] was “Active”. The Drug uptake entry (with A2780 [2]; in data set [3]) was “Not Active” in each case.

On to `CN1/C(=C\c2cc[n+](CCCCCC(=O)N[C@@H](CC3CCCCC3)C(=O)N[C@H](CCCCN)C(=O)N[C@@H](CC3CCCCC3)C(=O)N[C@H](CCCCN)C(=O)N[C@@H](CC3CCCCC3)C(=O)N[C@H](CCCCN)C(=O)N[C@H](CCCCNC(=O)CCCc3ccc(N(CCCl)CCCl)cc3)C(N)=O)c3ccccc23)Sc2ccccc21`, for which the inhibition entry in the data set on A2780 [1] and in the data set with A2780 [5] was “Active” throughout. In addition, the inhibition in the data set with A2780 [4] and with A2780 [6] was 50% throughout. Also, the inhibition entry with A2780 [7] was “inactive”.

Turning to `CN1/C(=C\c2cc[n+](CCCCCC(=O)N[C@@H](Cc3ccc(O)cc3)C(=O)N[C@H](CCCNC(=N)N)C(=O)N[C@@H](Cc3ccc(O)cc3)C(=O)N[C@H](CCCNC(=N)N)C(=O)N[C@@H](Cc3ccc(O)cc3)C(=O)N[C@H](CCCNC(=N)N)C(=O)N[C@H](CCCCNC(=O)CCCc3ccc(N(CCCl)CCCl)cc3)C(N)=O)c3ccccc23)Sc2ccccc21`, the inhibition result in the data set with A2780 [1] is “Active”. Besides, the Drug uptake result (in the data set on A2780 [2]; in data set [3]) was “Not Active” each time.

For `CN1/C(=C\c2cc[n+](CCCCCC(=O)N[C@@H](CC3CCCCC3)C(=O)N[C@H](CCCNC(=N)N)C(=O)N[C@@H](CC3CCCCC3)C(=O)N[C@H](CCCNC(=N)N)C(=O)N[C@@H](CC3CCCCC3)C(=O)N[C@H](CCCNC(=N)N)C(=O)N[C@@H](CCCCNC(=O)CCCc3ccc(N(CCCl)CCCl)cc3)C(N)=O)c3ccccc23)Sc2ccccc21`, the values for the Drug uptake entry in [8], in [11] and in data set [16] were “Active”, “Active” and “Not Active”, respectively. Also, the inhibition entry in the data set on A2780 [9], with A2780 [10], with A2780 [14] and in the data set on A2780 [15] was “Active” in each case. In the data set with A2780 [12], the inhibition result was “inactive”. Also, the “inhibition (INH)” value in [13] is recorded as “Active”.

Turning to `CN1/C(=C\c2cc[n+](CCCCCC(=O)N[C@@H](CC3CCCCC3)C(=O)N[C@H](CCCNC(=N)N)C(=O)N[C@@H](CC3CCCCC3)C(=O)N[C@H](CCCNC(=N)N)C(=O)N[C@@H](CC3CCCCC3)C(=O)N[C@H](CCCNC(=N)N)C(=O)N[C@H](CCCCNC(=O)CCCc3ccc(N(CCCl)CCCl)cc3)C(N)=O)c3ccccc23)Sc2ccccc21`, the inhibition entry in the data set with A2780 [1] and with A2780 [17] was “Active” each time. Further, the Drug uptake result in [3] is “Active”.

With `N=C(N)NCCC[C@@H](NC(=O)[C@H](CC1CCCCC1)NC(=O)[C@@H](CCCNC(=N)N)NC(=O)[C@H](CC1CCCCC1)NC(=O)[C@@H](CCCNC(=N)N)NC(=O)[C@@H](N)CC1CCCCC1)C(=O)N[C@@H](CCCCN)C(N)=O`, the inhibition result with A2780 [15] is “inactive”.

Regarding `CN1/C(=C\c2cc[n+](CCCCCC(=O)N[C@@H](Cc3ccncc3)C(=O)N[C@H](CCCNC(=N)N)C(=O)N[C@@H](Cc3ccncc3)C(=O)N[C@H](CCCNC(=N)N)C(=O)N[C@@H](Cc3ccncc3)C(=O)N[C@H](CCCNC(=N)N)C(=O)N[C@H](CCCCNC(=O)CCCc3ccc(N(CCCl)CCCl)cc3)C(N)=O)c3ccccc23)Sc2ccccc21`, the inhibition entry with A2780 [1] and with A2780 [5] was “Active” in each case. Also, the inhibition in the data set on A2780 [4] and with A2780 [6] was 50% throughout. Further, in data set [3], the Drug uptake result is on record as “Active”. Further, the inhibition result in the data set with A2780 [7] is “inactive”.

On to `O=C(O)CCCc1ccc(N(CCCl)CCCl)cc1`, for which the inhibition result with A2780 [15] was “inactive”.

For the compound `CN1/C(=C\c2cc[n+](CCCCCC(=O)N[C@@H](Cc3ccccc3)C(=O)N[C@H](CCCNC(=N)N)C(=O)N[C@@H](Cc3ccccc3)C(=O)N[C@H](CCCNC(=N)N)C(=O)N[C@@H](Cc3ccccc3)C(=O)N[C@H](CCCNC(=N)N)C(=O)N[C@H](CCCCNC(=O)CCCc3ccc(N(CCCl)CCCl)cc3)C(N)=O)c3ccccc23)Sc2ccccc21`, the inhibition entry with A2780 [1] and in the data set on A2780 [5] was “Active” in each case. Also, the inhibition with A2780 [4] and in the data set on A2780 [6] was 50% each time. The Drug uptake result in [3] is reported as “Active”. In the data set with A2780 [7], the inhibition result is “inactive”.

The values above are taken from ChEMBL document CHEMBL2203067, “Peptide-chlorambucil conjugates combat pgp-dependent drug efflux” (ACS Med Chem Lett, 2011).
